# Laboratory results from publication PMC12520178, “Turn-engineering tunes the conformational rigidity of β-hairpin AMPs in achieving membrane selectivity and killing drug-resistant ESKAPE pathogens” (Chemical Science, 2025).
# Like-named read-outs stand apart in the source and are kept apart here. Where a SMILES comes first, the peptide text is derived from it. Bridges are numbered along the chain shown (N, C = ends). [ ]: non-standard residue; d: D form. NMeR = CN[C@@H](CCCNC(=N)N)C(=O)O; dNMeR = CN[C@H](CCCNC(=N)N)C(=O)O
# Key:
# Klebsiella pneumoniae = format: cell-based
# human red blood cells [1] = settings: red cells of human
# Acinetobacter baumannii = format: cell-based
# Staphylococcus aureus = assay: microbe, parasite or virus in culture; format: cell-based
# Escherichia coli = format: cell-based
# Pseudomonas aeruginosa = format: cell-based
# human red blood cells [2] = assay: Hemolysis assay against human red blood cells; settings: ≥10% hemolysis against human RBCs; 4% (v/v) hRBCs in PBS, 1.5 h at 37 °C, 405 nm; n = 3
# [3] = against E. coli, microbroth dilution, 5x10^5 cfu/mL, 20-24 h at 37 °C, turbidity 600 nm, n = 5, median
MIC (μM) kp (Klebsiella pneumoniae),MIC (μM) ab (Acinetobacter baumannii),MIC (μM) sa (Staphylococcus aureus),MIC90 (Escherichia coli),MIC (μM) ec (Escherichia coli),MIC (μM) pa (Pseudomonas aeruginosa),Compound,"MHC10 (μM), minimum hemolytic concentration (human red blood cells [1])",MIC90 (Escherichia coli; [3]),"MHC10 (μM), minimum hemolytic concentration (human red blood cells [2])"
0.4 µM,1.2 µM,0.6 µM,0.4 µM,0.4 µM,2.4 µM,CC(C)[C@H](NC(=O)[C@H](CCCNC(=N)N)NC(=O)[C@H](C)NC(=O)[C@H](Cc1ccc(O)cc1)NC(=O)[C@@H](NC(=O)[C@@H](NC(=O)[C@H](Cc1c[nH]c2ccccc12)NC(=O)[C@@H](N)CCCNC(=N)N)[C@@H](C)O)C(C)C)C(=O)N[C@H](C)C(=O)N(C)[C@@H](CCCNC(=N)N)C(=O)N[C@H](C(=O)N[C@@H](CCCNC(=N)N)C(=O)N[C@@H](Cc1ccc(O)cc1)C(=O)N[C@@H](CCCNC(=N)N)C(=O)N[C@@H](CCCNC(=N)N)C(=O)N[C@H](C(=O)N[C@@H](Cc1c[nH]c2ccccc12)C(=O)O)[C@@H](C)O)C(C)C [1d] (H-RWTVYARV[dA][NMeR]VRYRRTW-OH),100 µM,,
,,,,,,"CC(C)[C@@H]1NC(=O)[C@H](CCCNC(=N)N)NC(=O)[C@H](Cc2ccccc2)NC(=O)[C@@H](NC(=O)[C@H](Cc2c[nH]c3ccccc23)NC(=O)[C@H](CCCNC(=N)N)NC(=O)[C@@H](N)CCCNC(=N)N)CSSC[C@@H](C(=O)N[C@@H](CCCNC(=N)N)C(N)=O)NC(=O)[C@H](CCCCN)NC(=O)[C@H](CCCNC(=N)N)NC(=O)[C@H](Cc2ccc(O)cc2)NC(=O)[C@@H]2CSSC[C@H](NC1=O)C(=O)N[C@@H](Cc1ccc(O)cc1)C(=O)N[C@H](C)C(=O)N(C)[C@@H](CCCNC(=N)N)C(=O)N[C@@H](Cc1ccccc1)C(=O)N2 [3a] (H-RRWCFRVCY[dA][NMeR]FCYRKCR-NH2; disulfide 4-17, 8-13)",,0.7 µM,12.5 µM
3.1 µM,1.6 µM,1.2 µM,0.4 µM,0.4 µM,1.6 µM,CC(C)[C@@H](NC(=O)[C@@H](CCCNC(=N)N)NC(=O)[C@@H](Cc1ccccc1)NC(=O)[C@H](NC(=O)[C@@H](Cc1c[nH]c2ccccc12)NC(=O)[C@@H](CCCNC(=N)N)NC(=O)[C@H](N)CCCNC(=N)N)[C@H](C)O)C(=O)N[C@@H](C(=O)N[C@H](Cc1ccc(O)cc1)C(=O)N[C@@H](C)C(=O)N(C)[C@H](CCCNC(=N)N)C(=O)N[C@H](Cc1ccccc1)C(=O)N[C@@H](C(=O)N[C@H](Cc1ccc(O)cc1)C(=O)N[C@H](CCCNC(=N)N)C(=O)N[C@H](CCCCN)C(=O)N[C@@H](C(=O)N[C@H](CCCNC(=N)N)C(N)=O)[C@H](C)O)[C@H](C)O)[C@H](C)O [3f] (H-[dR][dR][dW][dT][dF][dR][dV][dT][dY]A[dNMeR][dF][dT][dY][dR][dK][dT][dR]-NH2),100 µM,,
,,,,,,"CC[C@H](C)[C@@H]1NC(=O)[C@H](CCCNC(=N)N)N(C)C(=O)[C@@H](C)NC(=O)[C@H](Cc2ccc(O)cc2)NC(=O)[C@@H]2CSSC[C@H](NC1=O)C(=O)N[C@@H](Cc1ccc(O)cc1)C(=O)N[C@@H](CCCNC(=N)N)C(=O)N[C@@H](CCCNC(=N)N)C(=O)N[C@H](C(=O)N[C@@H](CCCNC(=N)N)C(N)=O)CSSC[C@H](NC(=O)[C@H](Cc1c[nH]c3ccccc13)NC(=O)[C@@H](N)CCCCN)C(=O)N[C@@H](Cc1ccccc1)C(=O)N[C@@H](CCCNC(=N)N)C(=O)N[C@@H](C(C)C)C(=O)N2 [4a] (H-KWCFRVCY[dA][NMeR]ICYRRCR-NH2; disulfide 3-16, 7-12)",,0.3 µM,12.5 µM
6.3 µM,3.1 µM,6.3 µM,1.9 µM,,6.3 µM,CC(C)[C@H](NC(=O)[C@H](CCCNC(=N)N)NC(=O)[C@H](Cc1ccccc1)NC(=O)[C@@H](NC(=O)[C@H](Cc1c[nH]c2ccccc12)NC(=O)[C@H](CCCNC(=N)N)NC(=O)[C@@H](N)CCCNC(=N)N)[C@@H](C)O)C(=O)N[C@H](C(=O)N[C@@H](Cc1ccc(O)cc1)C(=O)N[C@@H](CCCNC(=N)N)C(=O)NCC(=O)N[C@@H](Cc1ccccc1)C(=O)N[C@H](C(=O)N[C@@H](Cc1ccc(O)cc1)C(=O)N[C@@H](CCCNC(=N)N)C(=O)N[C@@H](CCCCN)C(=O)N[C@H](C(=O)N[C@@H](CCCNC(=N)N)C(N)=O)[C@@H](C)O)[C@@H](C)O)[C@@H](C)O [3c] (H-RRWTFRVTYRGFTYRKTR-NH2),100 µM,,
6.3 µM,1.6 µM,12.5 µM,2.2 µM,,6.3 µM,CC[C@H](C)[C@H](NC(=O)CNC(=O)[C@H](CCCNC(=N)N)NC(=O)[C@H](Cc1ccc(O)cc1)NC(=O)[C@@H](NC(=O)[C@@H](NC(=O)[C@H](CCCNC(=N)N)NC(=O)[C@H](Cc1ccccc1)NC(=O)[C@@H](NC(=O)[C@H](Cc1c[nH]c2ccccc12)NC(=O)[C@@H](N)CCCCN)[C@@H](C)O)C(C)C)[C@@H](C)O)C(=O)N[C@H](C(=O)N[C@@H](Cc1ccc(O)cc1)C(=O)N[C@@H](CCCNC(=N)N)C(=O)N[C@@H](CCCNC(=N)N)C(=O)N[C@H](C(=O)N[C@@H](CCCNC(=N)N)C(N)=O)[C@@H](C)O)[C@@H](C)O [4c] (H-KWTFRVTYRGITYRRTR-NH2),100 µM,,
3.1 µM,3.1 µM,0.8 µM,0.4 µM,0.4 µM,3.1 µM,CC(C)[C@@H](NC(=O)[C@@H](CCCNC(=N)N)N(C)C(=O)[C@H](C)NC(=O)[C@H](NC(=O)[C@@H](CCCNC(=N)N)NC(=O)[C@@H](C)NC(=O)[C@@H](Cc1ccc(O)cc1)NC(=O)[C@H](NC(=O)[C@H](NC(=O)[C@@H](Cc1c[nH]c2ccccc12)NC(=O)[C@H](N)CCCNC(=N)N)[C@H](C)O)C(C)C)C(C)C)C(=O)N[C@H](CCCNC(=N)N)C(=O)N[C@H](Cc1ccc(O)cc1)C(=O)N[C@H](CCCNC(=N)N)C(=O)N[C@H](CCCNC(=N)N)C(=O)N[C@@H](C(=O)N[C@H](Cc1c[nH]c2ccccc12)C(=O)O)[C@H](C)O [1f] (H-[dR][dW][dT][dV][dY][dA][dR][dV]A[dNMeR][dV][dR][dY][dR][dR][dT][dW]-OH),100 µM,,
3.1 µM,3.1 µM,6.3 µM,1 µM,,3.1 µM,CC(C)C[C@H](NC(=O)[C@H](CCCNC(=N)N)NC(=O)CNC(=O)CNC(=O)[C@@H](N)CCCNC(=N)N)C(=O)N[C@H](C(=O)N[C@@H](Cc1ccc(O)cc1)C(=O)N[C@H](C(=O)N[C@@H](CCCNC(=N)N)C(=O)N[C@@H](CCCNC(=N)N)C(=O)N[C@@H](CCCNC(=N)N)C(=O)N[C@@H](Cc1ccccc1)C(=O)N[C@H](C(=O)N[C@H](C(=O)N[C@H](C(=O)N[C@H](C(=O)NCC(=O)N[C@@H](CCCNC(=N)N)C(N)=O)C(C)C)[C@@H](C)O)C(C)C)[C@@H](C)O)[C@@H](C)O)[C@@H](C)O [2c] (H-RGGRLTYTRRRFTVTVGR-NH2),>200 µM,,
0.8 µM,0.4 µM,3.1 µM,0.4 µM,,1.6 µM,CC(C)C[C@H](NC(=O)[C@H](CCCNC(=N)N)NC(=O)CNC(=O)CNC(=O)[C@@H](N)CCCNC(=N)N)C(=O)N[C@H](C(=O)N[C@@H](Cc1ccc(O)cc1)C(=O)N[C@H](C(=O)N[C@@H](CCCNC(=N)N)C(=O)N[C@H](C)C(=O)N(C)[C@@H](CCCNC(=N)N)C(=O)N[C@@H](Cc1ccccc1)C(=O)N[C@H](C(=O)N[C@H](C(=O)N[C@H](C(=O)N[C@H](C(=O)NCC(=O)N[C@@H](CCCNC(=N)N)C(N)=O)C(C)C)[C@@H](C)O)C(C)C)[C@@H](C)O)[C@@H](C)O)[C@@H](C)O [2d] (H-RGGRLTYTR[dA][NMeR]FTVTVGR-NH2),100 µM,,
3.1 µM,2.3 µM,2.3 µM,0.4 µM,0.4 µM,1.6 µM,CC(C)C[C@@H](NC(=O)[C@@H](CCCNC(=N)N)NC(=O)CNC(=O)CNC(=O)[C@H](N)CCCNC(=N)N)C(=O)N[C@@H](C(=O)N[C@H](Cc1ccc(O)cc1)C(=O)N[C@@H](C(=O)N[C@H](CCCNC(=N)N)C(=O)N[C@@H](C)C(=O)N(C)[C@H](CCCNC(=N)N)C(=O)N[C@H](Cc1ccccc1)C(=O)N[C@@H](C(=O)N[C@@H](C(=O)N[C@@H](C(=O)N[C@@H](C(=O)NCC(=O)N[C@H](CCCNC(=N)N)C(N)=O)C(C)C)[C@H](C)O)C(C)C)[C@H](C)O)[C@H](C)O)[C@H](C)O [2f] (H-[dR]GG[dR][dL][dT][dY][dT][dR]A[dNMeR][dF][dT][dV][dT][dV]G[dR]-NH2),>200 µM,,
2.4 µM,0.8 µM,3.1 µM,0.4 µM,0.4 µM,0.4 µM,CC(C)[C@H](NC(=O)[C@H](CCCNC(=N)N)NC(=O)[C@H](Cc1ccccc1)NC(=O)[C@@H](NC(=O)[C@H](Cc1c[nH]c2ccccc12)NC(=O)[C@H](CCCNC(=N)N)NC(=O)[C@@H](N)CCCNC(=N)N)[C@@H](C)O)C(=O)N[C@H](C(=O)N[C@@H](Cc1ccc(O)cc1)C(=O)N[C@H](C)C(=O)N(C)[C@@H](CCCNC(=N)N)C(=O)N[C@@H](Cc1ccccc1)C(=O)N[C@H](C(=O)N[C@@H](Cc1ccc(O)cc1)C(=O)N[C@@H](CCCNC(=N)N)C(=O)N[C@@H](CCCCN)C(=O)N[C@H](C(=O)N[C@@H](CCCNC(=N)N)C(N)=O)[C@@H](C)O)[C@@H](C)O)[C@@H](C)O [3d] (H-RRWTFRVTY[dA][NMeR]FTYRKTR-NH2),50 µM,,
